Measured values from the supplement of paper PMC11579375.

Key:
Assay in all cases: area under the viability dose-response curve (AUC) (AUC (arbitrary units, max 500 = no viability loss)); higher = less sensitive (higher viability)
Settings in all cases: exposure time: 120 h; concentration range: 0.1 nM - 10 µM, 6 doses
22E = system: 22E (embryonal-type hepatoblastoma organoid)
Description: (§1)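 Patient-derived hepatoblastoma tumor organoids (about 50 organoids per well, 384-well plates, medium with 5% BME) were treated with the PMC pediatric cancer drug library. Each drug was tested in duplicate at 6 concentrations (0.1 nM to 10 µM, 10-fold steps).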

135F2 = system: 135F2 (fetal-II hepatoblastoma organoid with high liver markers)
Description: as §1

3E = system: 3E (embryonal-type hepatoblastoma organoid)
Description: as §1

13F2 = system: 13F2 (fetal-II hepatoblastoma organoid with high liver markers)
Description: as §1

10F2 = system: 10F2 (fetal-II hepatoblastoma organoid with high liver markers)
Description: as §1

27F1 = system: 27F1 (fetal-I hepatoblastoma organoid with intermediate liver markers)
Description: as §1

8F1 = system: 8F1 (fetal-I hepatoblastoma organoid with intermediate liver markers)
Description: as §1

17F1 = system: 17F1 (fetal-I hepatoblastoma organoid with intermediate liver markers)
Description: as §1

13E = system: 13E (embryonal-type hepatoblastoma organoid)
Description: as §1

96F1 = system: 96F1 (fetal-I hepatoblastoma organoid with intermediate liver markers)
Description: as §1

17E = system: 17E (embryonal-type hepatoblastoma organoid)
Description: as §1

Row | SMILES | area under the viability dose-response curve (22E) | area under the viability dose-response curve (135F2) | area under the viability dose-response curve (3E) | area under the viability dose-response curve (13F2) | area under the viability dose-response curve (10F2) | area under the viability dose-response curve (27F1) | area under the viability dose-response curve (8F1) | area under the viability dose-response curve (17F1) | area under the viability dose-response curve (13E) | area under the viability dose-response curve (96F1) | area under the viability dose-response curve (17E)
1 | CC[C@H](NC(=O)[C@H](C)NC)C(=O)N1C[C@@H](O)C[C@H]1Cc1c(-c2[nH]c3cc(F)ccc3c2C[C@@H]2C[C@H](O)CN2C(=O)[C@H](CC)NC(=O)[C@H](C)NC)[nH]c2cc(F)ccc12 [Birinapant] | 204 | 483 | 237 | 483 | 425 | > 500 | 468 | 467 | 473 | 480 | 434
2 | CC(C)C[C@H](NC(=O)[C@H](Cc1ccccc1)NC(=O)c1cnccn1)B(O)O [Bortezomib] | 193 | 191 | 133 | 182 | 189 | 200 | 207 | 170 | 179 | 210 | 173
3 | COc1cc(Nc2c(C#N)cnc3cc(OCCCN4CCN(C)CC4)c(OC)cc23)c(Cl)cc1Cl [Bosutinib] | 471 | 459 | 435 | 397 | 429 | 422 | 450 | 469 | 447 | 433 | 429
4 | COc1cc(N2CCC(N3CCN(C)CC3)CC2)ccc1Nc1ncc(Cl)c(Nc2ccccc2P(C)(C)=O)n1 [Brigatinib] | 381 | 392 | 349 | 388 | 399 | 420 | 454 | 426 | 402 | 427 | 398
5 | Nc1cc(C(F)(F)F)c(-c2cc(N3CCOCC3)nc(N3CCOCC3)n2)cn1 [Buparlisib] | 425 | 440 | 383 | 413 | 385 | 436 | 447 | 454 | 413 | 449 | 416
6 | Cc1sc2c(c1C)C(c1ccc(Cl)cc1)=N[C@@H](CC(N)=O)c1nnc(C)n1-2 [CPI-203] | 413 | 334 | 342 | 336 | 335 | 468 | 447 | 467 | 410 | 473 | 373
7 | CC(C)c1c(-c2ccccc2)nc2c(C#N)c[nH]n2c1=O [CPI-455] | > 500 | > 500 | > 500 | > 500 | 469 | > 500 | > 500 | 498 | > 500 | > 500 | > 500
8 | CC[C@H](Nc1nc(NCc2cnc(C)cc2C)c2ncn(C(C)C)c2n1)[C@@H](C)O [CYC065] | 419 | 387 | 382 | 328 | 325 | 347 | 377 | 366 | 400 | 333 | 381
9 | COc1cc2nccc(Oc3ccc(NC(=O)C4(C(=O)Nc5ccc(F)cc5)CC4)cc3)c2cc1OC [Cabozantinib] | 445 | 491 | 457 | 442 | 488 | > 500 | 489 | > 500 | 478 | 475 | 439
10 | CC[C@@]1(O)C(=O)OCc2c1cc1n(c2=O)Cc2cc3ccccc3nc2-1 [Camptothecin] | 361 | 227 | 201 | 174 | 219 | 255 | 295 | 277 | 304 | 208 | 263
11 | CNC(=O)c1ccc(-c2cnc3ncc(Cc4ccc5ncccc5c4)n3n2)cc1F [Capmatinib] | 462 | 491 | > 500 | 403 | > 500 | 465 | 460 | 477 | 498 | 478 | 481
12 | CC(C)C[C@H](NC(=O)[C@H](CCc1ccccc1)NC(=O)CN1CCOCC1)C(=O)N[C@@H](Cc1ccccc1)C(=O)N[C@@H](CC(C)C)C(=O)[C@@]1(C)CO1 [Carfilzomib] | 347 | 194 | 242 | 217 | 323 | 332 | 350 | 269 | 362 | 355 | 247
13 | COc1cc2c(Oc3ccc4[nH]c(C)cc4c3F)ncnc2cc1OCCCN1CCCC1 [Cediranib] | 414 | 438 | 390 | 402 | 430 | 431 | > 500 | 459 | 428 | 454 | 425
14 | C[C@@H]1COCCN1c1cc(C2([S@](C)(=N)=O)CC2)nc(-c2cc[nH]c3nccc2-3)n1 [Ceralasertib] | 462 | 448 | 442 | 450 | 475 | 479 | > 500 | 478 | 468 | 450 | 462
15 | Cc1cc(Nc2ncc(Cl)c(Nc3ccccc3S(=O)(=O)C(C)C)n2)c(OC(C)C)cc1C1CCNCC1 [Ceritinib] | 375 | 373 | 351 | 349 | 356 | 432 | 441 | 446 | 381 | 413 | 368
16 | O=C(c1ccc(F)c(F)c1Nc1ccc(I)cc1F)N1CC(O)([C@@H]2CCCCN2)C1 [Cobimetinib] | 448 | 300 | 372 | 266 | 220 | 381 | 455 | 438 | 429 | 430 | 362
17 | C[C@H](NC(=O)CCC(F)(F)F)C(=O)N[C@@H]1C(=O)N(CCO)c2ncccc2-c2ccccc21 [Crenigacestat] | 474 | 479 | 458 | 418 | 389 | 484 | 498 | > 500 | 482 | 480 | 482
